Experimental findings from US8466188B2, “Use of spiro-oxindole compounds as therapeutic agents” (Xenon Pharmaceuticals Inc., priority 2006, dated 2013) are described below.

Some results are limits rather than exact numbers.

The test system of one series is sodium channel. Kind of series: Guanidine influx assay (14C-guanidine radiotracer flux) in a known cell line that expresses a sodium channel. In kind it is cell-based, human or rat. From the text: This example describes an in vitro assay for testing and profiling test agents against human or rat sodium channels stably expressed in cells of either an endogenous or recombinant origin.
The guanidine influx assay is a radiotracer flux assay used to determine ion flux activity of sodium channels in a high-throughput microplate-based format. The assay uses ^14C-guanidine hydrochloride in combination with various known sodium channel modulators, to assay the potency of test agents. Potency is determined by an IC50 calculation. Selectivity is determined by comparing potency of the compound for the channel of interest to its potency against other sodium channels (also called ‘selectivity profiling’).
Each of the test agents is assayed against cells that express the sodium channel of interest. Voltage gated sodium channels are either TTX sensitive or insensitive. This property is useful when evaluating the activities of a channel of interest when it resides in a mixed population with other sodium channels. The following Table 1 lists certain cell lines which are useful in screening for a certain sodium channel activity in the presence or absence of TTX.
It is also possible to employ recombinant cells expressing these sodium channels.
Cells expressing the channel of interest are grown according to the supplier or in the case of a recombinant cell in the presence of selective growth media such as G418 (Gibco/Invitrogen). The cells are disassociated from the culture dishes with an enzymatic solution (1×) Trypsin/EDTA (Gibco/Invitrogen) and analyzed for density and viability using haemocytometer (Neubauer). Disassociated cells are washed and resuspended in their culture media then plated into Scintiplates (Beckman Coulter Inc.) (approximately 100,000 cells/well) and incubated at 37° C./5% CO2 for 20-24 hours. After an extensive wash with Low sodium HEPES-buffered saline solution (LNHBSS) (150 mM Choline Chloride, […] (Sigma), 1 mM Calcium Chloride, 5 mM Potassium Chloride, 1 mM Magnesium Chloride, 10 mM Glucose) agents diluted with LNHBSS are added to each well. (Varying concentrations of test agent may be used). The activation/radiolabel mixture contains aconitine (Sigma), and ^14C-guanidine hydrochloride (ARC).
After loading the cells with test agent and activation/radiolabel mixture, the Scintiplates are incubated at ambient temperature. Following the incubation, the Scintplates are extensively washed with LNHBSS supplemented with guanidine (Sigma). The Scintiplates are dried and then counted using a Wallac MicroBeta TriLux (Perkin-Elmer Life Sciences). The ability of the test agent to block sodium channel activity is determined by comparing the amount of ^14C-guanidine present inside the cells expressing the different sodium channels.
IC50 value of a test agent for a specific sodium channel may be determined using the above general method. […] The IC50 curve is calculated using the 4 Parameter Logistic Model or Sigmoidal Dose-Response Model formula (fit=(A+((B−A)/(1+((C/x)^D)))).
The fold selectivity, factor of selectivity or multiple of selectivity, is calculated by dividing the IC50 value of the test sodium channel by the reference sodium channel, for example, Nav1.5.
The Example numbers provided in Table 2 correspond to the Example numbers herein: […]

For series [1], the system named is Nav1.8 in SK-N-BE2C cells. The format is cell-based, human.
Series [2] concerns Nav1.4 and 1.5 in L6 cells. The format is cell-based, rat.
The target in a further series is Nav1.2 in PC12 cells (Rattus norvegicus, UniProt P04775).
Another series deals with Nav1.4 in CHO-K1 cells. The format is cell-based, Chinese hamster.

Chain of Nav1.2 in PC12 cells (P04775 whole entry, looked up): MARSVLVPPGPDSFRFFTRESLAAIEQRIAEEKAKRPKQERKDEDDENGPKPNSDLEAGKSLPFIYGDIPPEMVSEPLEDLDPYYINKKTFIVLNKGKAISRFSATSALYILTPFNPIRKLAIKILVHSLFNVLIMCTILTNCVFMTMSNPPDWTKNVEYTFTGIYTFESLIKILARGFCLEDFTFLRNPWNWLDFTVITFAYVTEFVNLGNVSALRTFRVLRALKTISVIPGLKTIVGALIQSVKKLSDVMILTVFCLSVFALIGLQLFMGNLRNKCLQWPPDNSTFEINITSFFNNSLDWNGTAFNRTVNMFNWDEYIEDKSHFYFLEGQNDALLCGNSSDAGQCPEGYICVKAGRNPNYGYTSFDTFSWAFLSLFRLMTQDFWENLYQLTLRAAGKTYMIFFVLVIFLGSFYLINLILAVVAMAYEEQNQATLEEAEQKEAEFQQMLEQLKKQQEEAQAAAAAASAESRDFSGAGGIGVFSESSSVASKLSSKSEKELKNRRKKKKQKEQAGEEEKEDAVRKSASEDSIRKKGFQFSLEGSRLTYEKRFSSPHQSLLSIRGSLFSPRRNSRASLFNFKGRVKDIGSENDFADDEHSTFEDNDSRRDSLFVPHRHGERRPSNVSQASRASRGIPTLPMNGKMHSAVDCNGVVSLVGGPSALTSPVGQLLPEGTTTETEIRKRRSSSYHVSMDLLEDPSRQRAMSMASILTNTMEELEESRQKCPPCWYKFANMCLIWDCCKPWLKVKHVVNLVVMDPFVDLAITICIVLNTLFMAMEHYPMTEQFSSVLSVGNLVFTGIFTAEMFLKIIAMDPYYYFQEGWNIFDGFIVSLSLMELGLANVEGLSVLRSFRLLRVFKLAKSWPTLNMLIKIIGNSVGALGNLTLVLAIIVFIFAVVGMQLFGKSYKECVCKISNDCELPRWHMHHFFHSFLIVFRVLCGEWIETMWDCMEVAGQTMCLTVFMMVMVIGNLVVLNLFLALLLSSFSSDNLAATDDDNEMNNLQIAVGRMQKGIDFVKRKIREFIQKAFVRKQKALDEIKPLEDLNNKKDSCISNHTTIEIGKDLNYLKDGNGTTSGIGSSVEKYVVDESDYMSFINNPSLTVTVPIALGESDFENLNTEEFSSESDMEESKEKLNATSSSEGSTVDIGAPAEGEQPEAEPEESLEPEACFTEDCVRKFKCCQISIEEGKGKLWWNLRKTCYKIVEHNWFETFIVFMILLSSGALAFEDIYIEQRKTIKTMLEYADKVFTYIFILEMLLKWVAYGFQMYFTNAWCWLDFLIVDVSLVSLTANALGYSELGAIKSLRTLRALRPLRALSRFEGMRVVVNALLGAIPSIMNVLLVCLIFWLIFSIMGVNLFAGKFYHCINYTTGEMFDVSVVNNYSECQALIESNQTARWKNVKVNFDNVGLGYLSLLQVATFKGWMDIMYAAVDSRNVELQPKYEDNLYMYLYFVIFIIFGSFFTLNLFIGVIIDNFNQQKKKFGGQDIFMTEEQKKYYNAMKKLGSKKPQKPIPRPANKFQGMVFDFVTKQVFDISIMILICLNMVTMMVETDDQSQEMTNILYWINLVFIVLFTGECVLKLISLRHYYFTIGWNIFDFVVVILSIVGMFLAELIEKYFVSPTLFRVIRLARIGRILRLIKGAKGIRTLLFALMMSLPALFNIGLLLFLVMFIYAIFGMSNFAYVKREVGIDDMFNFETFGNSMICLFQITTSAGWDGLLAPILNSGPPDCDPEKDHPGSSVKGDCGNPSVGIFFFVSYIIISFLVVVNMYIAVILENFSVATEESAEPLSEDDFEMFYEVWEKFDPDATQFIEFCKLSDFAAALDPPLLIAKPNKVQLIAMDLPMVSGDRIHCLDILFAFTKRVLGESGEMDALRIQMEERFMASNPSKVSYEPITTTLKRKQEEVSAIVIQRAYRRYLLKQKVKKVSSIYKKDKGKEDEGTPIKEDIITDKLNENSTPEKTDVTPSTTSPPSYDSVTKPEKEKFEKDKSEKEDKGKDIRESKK

In turn, `O=C1N(CCC2CC2)c2ccccc2C12COc1cc3c(cc12)OCO3` (stereo not shown) [Example 1, 1′-(2-cyclopropylethyl)spiro[furo[2,3-f][1,3]benzodioxole-7,3′-indol]-2′(1′H)-one] gave a melting point of 125 to 127 °C. Also, the IC50 in the series with sodium channel was 1 to 10 nM.

For the compound `CCCCCN1C(=O)C2(OCc3cc4c(cc32)OCO4)c2ccccc21` (stereo not shown) [Example 20, 1′-pentyl-7H-spiro[furo[3,4-f][1,3]benzodioxole-5,3′-indol]-2′(1′H)-one], the melting point was in the range of 113 to 115 °C. The IC50 with sodium channel fell in the range of 1 to 10 nM.

`CCCCCN1C(=O)C2(COc3cc4c(cc32)OCO4)c2c(C#N)cccc21` (stereo not shown) [Example 30, 2′-oxo-1′-pentyl-1′,2′-dihydrospiro[furo[2,3-f][1,3]benzodioxole-7,3′-indole]-4′-carbonitrile] returned a melting point of 128 to 129 °C. Moreover, the IC50 in the series on sodium channel fell in the range of 10 to 100 nM.

Compound `CCCCCN1C(=O)C2(COc3cc(-c4ccncc4)ccc32)c2ccccc21` (stereo not shown) [Example 38, 1′-pentyl-6-pyridin-4-ylspiro[1-benzofuran-3,3′-indol]-2′(1′H)-one] yielded a melting point of 107 to 110 °C. The IC50 in the series on sodium channel was in the range of 100 to 1000 nM.

On to `CCCCCN1C(=O)C2(COc3cc(S(C)(=O)=O)ccc32)c2ccccc21` (stereo not shown) [Example 39, 6-(methylsulfonyl)-1′-pentylspiro[1-benzofuran-3,3′-indol]-2′(1′H)-one], for which the IC50 in the series on sodium channel was above 1000 nM.

As for `CCCCCN1C(=O)C2(COc3cc(S(=O)(=O)c4ccccc4)ccc32)c2ccccc21` (stereo not shown) [Example 40, 1′-pentyl-6-(phenylsulfonyl)spiro[1-benzofuran-3,3′-indol]-2′(1′H)-one], the IC50 in the series with sodium channel was 100 to 1000 nM.

For `CCCCCN1C(=O)C2(COc3ccc(Oc4ccccc4)cc32)c2ccccc21` (stereo not shown) [Example 41, 1′-pentyl-5-phenoxyspiro[1-benzofuran-3,3′-indol]-2′(1′H)-one], the IC50 in the series with sodium channel is above 1000 nM.

In the case of `CCCCCN1C(=O)C2(COc3ccc(-c4cccnc4)cc32)c2ccccc21` (stereo not shown) [Example 48, 1′-pentyl-5-pyridin-3-ylspiro[1-benzofuran-3,3′-indol]-2′(1′H)-one], the IC50 with sodium channel was in the range of 100 to 1000 nM.

The compound `CCCCCN1C(=O)C2(COc3ccc(-c4cncnc4)cc32)c2ccccc21` (stereo not shown) [Example 49, 1′-pentyl-5-pyrimidin-5-ylspiro[1-benzofuran-3,3′-indol]-2′(1′H)-one] showed a melting point of 115 to 117 °C. Besides, in the series with sodium channel, the IC50 lay within 100 to 1000 nM.

Take `CCCCCN1C(=O)C2(COc3ccc(-c4ccncc4)cc32)c2ccccc21` (stereo not shown) [Example 50, 1′-pentyl-5-pyridin-4-ylspiro[1-benzofuran-3,3′-indol]-2′(1′H)-one]: the IC50 in the series with sodium channel was in the range of 100 to 1000 nM.

In the case of `CCCCCN1C(=O)C2(COc3ccc(C#N)cc32)c2ccccc21` (stereo not shown) [Example 51, 2′-oxo-1′-pentyl-1′,2′-dihydrospiro[1-benzofuran-3,3′-indole]-5-carbonitrile], the IC50 in the series on sodium channel lay in the range of 100 to 1000 nM.

Compound `O=C(CN1C(=O)C2(COc3ccc(-c4cccnc4)cc32)c2ccccc21)Nc1ccccc1F` (stereo not shown) [Example 52, N-(2-fluorophenyl)-2-(2′-oxo-5-pyridin-3-ylspiro[1-benzofuran-3,3′-indol]-1′(2′H)-yl)acetamide] showed a melting point of 98 to 100 °C. Moreover, the IC50 with sodium channel is 100 to 1000 nM.

Turning to `O=C1N(C(c2ccccc2)c2ccccc2)c2ccccc2C12COc1ccc(-c3cccnc3)cc12` (stereo not shown) [Example 54, 1′-(diphenylmethyl)-5-pyridin-3-ylspiro[1-benzofuran-3,3′-indol]-2′(1′H)-one], the melting point lay in the range of 204 to 207 °C. Also, in the series with sodium channel, the IC50 is above 1000 nM.

In turn, `CC(C)(C)OC(=O)N1CCCC(c2ccc3c(c2)C2(CO3)C(=O)Nc3ccccc32)C1` (stereo not shown) [Example 55, tert-butyl 3-(2′-oxo-1′,2′-dihydrospiro[1-benzofuran-3,3′-indol]-5-yl)piperidine-1-carboxylate] returned a melting point of 120 to 123 °C. In the series with sodium channel, the IC50 is above 1000 nM.

The compound `O=C(NCCN1C(=O)C2(COc3cc4c(cc32)OCO4)c2ccccc21)c1ccccc1OC(F)(F)F` (stereo not shown) [Example 59, N-[2-(2′-oxospiro[furo[2,3-f][1,3]benzodioxole-7,3′-indol]-1′(2′H)-yl)ethyl]-2-(trifluoromethoxy)benzamide] displayed a melting point of 183 to 184 °C. Besides, the IC50 in the series on sodium channel fell in the range of 100 to 1000 nM.

As for `NC1=N[C@H](O)[C@H]2[C@H]3O[C@]4(O)O[C@@H]([C@@H](O)[C@@]2(N1)[C@@H]4O)[C@]3(O)CO` [TTX], the “block of [14C] Guanidine influx by TTX” value in series [1] is given as “TTX partially blocked influx”; in series [2], “partially blocked by TTX (Nav1.5”; at Nav1.2 in PC12 cells, “Guanidine influx was completely”; in the series on Nav1.4 in CHO-K1 cells it was “Guanidine influx was completely”.

The melting point is the temperature, or range, at which the solid turns liquid. In general, IC50 refers to the point on the concentration scale where inhibition reaches its midpoint.
